“And” between values parts separate entries of the source, which are not always exact repeats. Equal values may be shown once. “Also recorded” adds a separate entry of the source. Read-outs that look alike come from different tables or passages of the source. Where a SMILES comes first, the peptide text is derived from it. Bridges are numbered along the chain shown (N, C = ends). [ ]: non-standard residue; d: D form. The star is where a group is joined. Octanoyl = CCCCCCCC(=O)*; Dab = NCC[C@H](N)C(=O)O; Abu = CC[C@H](N)C(=O)O
Legend:
A. baumannii ATCC 19606 = test system: A. baumannii ATCC 19606
Experimental: (§1) Synergy studies were performed by using polymyxin derivatives in combination with rifampin, a model compound for such antibacterial agents that the intact outer membrane of Gram-negative bacteria acts as a permeability barrier.

A. baumannii JMI 48125 = test system: A. baumannii JMI 48125
Experimental: as §1

E. coli ATCC 25922 = test system: E. coli ATCC 25922
Experimental: as §1

E. coli JMI 3328 = test system: E. coli JMI 3328
Experimental: as §1

K. pneumoniae ATCC 43816 = test system: K. pneumoniae ATCC 43816
Experimental: as §1

K. pneumoniae JMI 27072 = test system: K. pneumoniae JMI 27072
Experimental: as §1

P. aeruginosa ATCC 27853 = test system: P. aeruginosa ATCC 27853
Experimental: as §1

P. aeruginosa JMI 7445 = test system: P. aeruginosa JMI 7445
Experimental: as §1

E. coli JMI 109 = experiment: MIC assay (CLSI broth microdilution; checkerboard with rifampin); assay type: cell-based, Escherichia coli; conditions: polymyxin-nonsusceptible strain
Experimental: as §1

K. pneumoniae JMI 27068 = experiment: as above; assay type: cell-based, Klebsiella pneumoniae; conditions: polymyxin-nonsusceptible strain
Experimental: as §1

A. baumannii CMI 417 = experiment: as above; assay type: cell-based, Acinetobacter baumannii; conditions: polymyxin-nonsusceptible strain
Experimental: as §1

[1] = 7-day intravenous toxicity (nephrotoxicity) study in cynomolgus monkeys; conditions: for kidney injury markers (S-BUN, S-Crea, U-NAG/Crea, U-GGT/Crea) / animals euthanized due to severe nephrotoxic effects: IV infusion TID, seven days; for animals euthanized due to severe nephrotoxic effects: 3 animals per group
Experimental: In vivo toxicity and toxicokinetic studies were performed by using cynomolgus monkeys. The laboratory that performed the animal studies is accredited by the Association for Assessment and Accreditation of Laboratory Animal Care (AAALAC), has an Animal Welfare Assurance issued by the Office of Laboratory Animal Welfare (OLAW), is registered with the United States Department of Agriculture (USDA), and has an Institutional Animal Care and Use Committee (IACUC) responsible for compliance with applicable laws and regulations concerning the humane care and use of laboratory animals.
Naive female cynomolgus monkeys were acclimatized to study room for 28 days during which each animal was implanted with a permanent indwelling femoral catheter to permit continuous intravenous infusions. The animals were allowed surgical recovery period of at least 2 weeks before initiating dosing.
Polymyxin B sulfate was from Sigma-Aldrich (catalogue number P0972, lot number BCBF8382V). On each day of use, appropriate quantities of NAB739, NAB815 or polymyxin B were weighed and dissolved in appropriate volumes of sterile saline to prepare a stock solution for each test article and positive control. A correction factor was used in the stock solution preparation to account for both the purity and sulfate content in each test article. Accordingly, the dose (such as 36 mg/kg/d) refers to the dose of the pure peptide as its free base form, not as its sulfate salt.
The doses were the following: polymyxin B 18 mg/kg/d (Group 1), polymyxin B 24 mg/kg/d (Group 2), NAB739 24 mg/kg/d (Group 3), NAB739 36 mg/kg/d (Group 4), NAB815 24 mg/kg/d (Group 5), NAB815 36 mg/kg/d (Group 6). Three animals were included in each study groups.
(§2) For seven days, the animals were dosed by intravenous (IV) infusion three times daily (TID) at a dose volume of 10 mL/kg for 1 hour (± 10 minutes), 8 ± 0.5 hours apart. The day of initial dose administration was designated study Day 1, with subsequent days consecutively numbered. Days prior to the initial dose administration were consecutively numbered with the final day of acclimation referenced as Day -1.
(§3) The following parameters were evaluated at designed intervals: clinical observations, body weights, clinical pathology (hematology, coagulation, serum chemistry, urinalysis including urine sediments and urine chemistry), toxi-cokinetics (plasma and urine) and anatomic pathology (kidney). In cases of animals sacrificed on an unscheduled basis, samples were taken on the day of the sacrifice.
On the day of necropsy, animals were sedated with ketamine, weighed, and anesthetized with an intravenous injection of a commercial pentobarbital and phenytoin solution, followed by exsanguinations.
At necropsy, gross observations and organ weights were recorded, and specific tissues were collected. Histopathology was conducted on sections of kidney stained with hematoxylin and eosin (H&E).
The figures also show Urine N-acetyl-β-D-glucosaminidase/urine creatinine ratio (U-NAG/Crea; Fig. 3) and Urine Gamma Glutamyltransferase/urine creatinine ratio (U-GGT/Crea; Fig. 4), both urine biomarkers for kidney injury, in those animals. S-Crea and U-Crea were measured by using an Olympus Analyzer (OA) and the modified Jaffe method, S-BUN by using OA and urease/L-glutamate dehydrogenase. U-NAG was measured by using OA/enzymatic, and U-GGT by using OA and glutamyl-carboxy-p-nitroanilide IFCC.
The presence of the following nephropathological parameters was recorded in each animal: tubular basophilia (regeneration), tubular degeneration/necrosis, infiltration (by mononuclear and/or mixed inflammatory cells), tubular dilatation, and tubular casts.

[2] = Toxicokinetics (plasma and urine levels by LC-MS/MS) in cynomolgus monkeys; conditions: for urinary recoveries (0-8 h urine collection) / urine concentrations (in 0-8 h urine collection): 36 mg/kg/d; for concentration in the urine: after infusion at 8 mg/kg, highest found either in the 0-4 h or 4-8 h sample, given for each animal; for concentration in the urine / 0-8 h recovery in urine: 8 mg/kg; for 0-8 h recovery in urine: after the infusion of 8 mg/kg, percentages given for each animal
Experimental: as §2, §3
Plasma and urine concentrations for toxicokinetic (TK) studies were determined by using liquid chromatograph interfaced with a mass spectrometer after precipitation of proteins. A sample (100 µL) was mixed with internal standard solution in water:formic acid (99:1 v/v; […]). Then, 600µL of 100:1 acetonitrile:formic acid was added. The plates were centrifuged at 3200 rpm for 5 minutes. Using a Tomtec Quadra96, a 450 µL aliquot was transferred to a new 96-well plate and dried under nitrogen at 40°C. Then, 200 µL of water:methanol:formic acid (85:15:1 1 v/v) was added and the plate sealed for LC-MS/MS injection. LC-MS system consisted of Waters Acquity liquid chromatograph interfaced with a Thermo Scientific TSQ Quantitative triple quadrupole MS with ionization in the positive ion mode. Each sample (20 µL) was injected onto a Waters Acquity BEH Shield RP18 column (2.1 x 50 mm; 1.7 µm) equilibrated at 50°C. Mobile Phase A was 85:15:1 v/v water:methanol:formic acid. Mobile Phase B was 50:50:1 v/v acetonitrile:methanol:formic acid.
Peak area ratios from the calibration standard responses were regressed using a (1/concentration^2) linear fit for polymyxin B using colistin as the internal standard. For NAB739 and NAB815, peak areas from the calibration standard responses were regressed using a (1/concentration^2) quadratic fit (without the use of an internal standard).
Toxicokinetic analysis was performed by using WinNonlin Phoenix version 6.3 software (Pharsight, Cary, NC). For plasma TK, noncompartmental IV infusion model was used.
The data is from the cynomolgus monkey studies described in the Example 3, where the peptides were administered as a 1-hour intravenous infusion thrice a day. The plasma and urine levels of the peptides were determined as in Example 3.

[3] = alone, Müller-Hinton II broth, 35°C, 20 hours
[4] = in combination with rifampin (0.25 µg/mL), duplicate checkerboard assays

SMILES	MIC (A. baumannii ATCC 19606; [3]) [µg/mL]	MIC (A. baumannii ATCC 19606; [4]) [µg/mL]	MIC (A. baumannii JMI 48125; [3]) [µg/mL]	MIC (A. baumannii JMI 48125; [4]) [µg/mL]	MIC (E. coli ATCC 25922; [3]) [µg/mL]	MIC (E. coli JMI 3328; [3]) [µg/mL]	MIC (K. pneumoniae ATCC 43816; [3]) [µg/mL]	MIC (K. pneumoniae JMI 27072; [3]) [µg/mL]	MIC (K. pneumoniae JMI 27072; [4]) [µg/mL]	MIC (P. aeruginosa ATCC 27853; [4]) [µg/mL]	MIC (P. aeruginosa JMI 7445; [3]) [µg/mL]	MIC (P. aeruginosa JMI 7445; [4]) [µg/mL]	MIC (E. coli JMI 109; [3]) [µg/mL]	MIC (E. coli JMI 109; [4]) [µg/mL]	MIC (K. pneumoniae JMI 27068; [3]) [µg/mL]	MIC (K. pneumoniae JMI 27068; [4]) [µg/mL]	MIC (A. baumannii CMI 417; [3]) [µg/mL]	MIC (A. baumannii CMI 417; [4]) [µg/mL]	kidney injury markers (S-BUN, S-Crea, U-NAG/Crea, U-GGT/Crea) ([1]; 24 mg/kg/d)	animals euthanized due to severe nephrotoxic effects ([1]; 36 mg/kg/d)	further results
CCCCCCCC(=O)N[C@H](C(=O)N[C@H](CO)C(=O)N[C@H]1CCNC(=O)[C@H]([C@@H](C)O)NC(=O)[C@H](CCN)NC(=O)[C@H](CCN)NC(=O)[C@H](CC(C)C)NC(=O)[C@@H](Cc2ccccc2)NC(=O)[C@H](CCN)NC1=O)[C@@H](C)O [NAB739, octanoyl -Thr - DSer-[cyclo-α,γDab - αDab - DPhe- Leu - αDab -αDab - Thr]] (Octanoyl-T[dS][Dab][Dab][dF]L[Dab][Dab]T; lactam 3-C)	4	0.5	2 to 4	0.5	2	2	4	2 to 4	1	4 to 8	4	4	32	1	128	2	128	2	one animal receiving NAB739 displayed marked increase in S-Crea	One animal	MIC (E. coli ATCC 25922): 1 µg/mL; MIC (E. coli JMI 3328): 1 µg/mL; MIC (K. pneumoniae ATCC 43816): 1 to 2 µg/mL; urinary recoveries (0-8 h urine collection) ([2]; day 1, per animal): 20.4% and 26.4%; urine concentrations (in 0-8 h urine collection) ([2]; day 1, per animal): 92 µg/mL and 33 µg/mL and 82 µg/mL; urinary recoveries (0-8 h urine collection) ([2]; day 7, per animal): 30.6% and 55.8%; urine concentrations (in 0-8 h urine collection) ([2]; day 7, per animal): 268 µg/mL and 348 µg/mL; concentration in the urine [2]: 80 µg/mL and 140 µg/mL and 155 µg/mL; 0-8 h recovery in urine [2]: up to 20 % of the dose and ≤ 91 % of the dose and ≤ 92 % of the dose
CCCCCCCC(=O)N[C@@H](CCN)C(=O)N[C@H](C(=O)N[C@@H](C(=O)N[C@H]1CCNC(=O)[C@H]([C@@H](C)O)NC(=O)[C@H](CCN)NC(=O)[C@H](CC)NC(=O)[C@H](CC(C)C)NC(=O)[C@@H](Cc2ccccc2)NC(=O)[C@H](CCN)NC1=O)[C@H](C)O)[C@@H](C)O [NAB815, octanoyl - αDab -Thr - DThr-[cyclo-α,yDab - αDab - DPhe- Leu -Abu -αDab - Thr]] (Octanoyl-[Dab]T[dT][Dab][Dab][dF]L[Abu][Dab]T; lactam 4-C)	4	0.5 to 2	2	0.5 to 2	2	4	2 to 4	2 to 4	1 to 2	>8	8	4	128	1	128	4	256	2	None of the parameters was elevated	underwent no prescheduled necropsy	MIC (E. coli ATCC 25922; [4]): 1 µg/mL; MIC (E. coli JMI 3328; [4]): 1 µg/mL; MIC (K. pneumoniae ATCC 43816; [4]): 1 µg/mL; MIC (P. aeruginosa ATCC 27853; [3]): 16 µg/mL; kidney injury markers (S-BUN, S-Crea, U-NAG/Crea, U-GGT/Crea) ([1]; 36 mg/kg/d): only minor if any elevations in the four parameters; kidney histopathology findings (nephropathological parameters) ([1]; 36 mg/kg/d, H&E kidney sections, five parameters graded 0 no significant findings, 1 minimal, 2 mild, 3 moderate, 4 marked): moderate findings, both in one parameter only; also recorded: no other than minimal or mild findings; urinary recoveries (0-8 h urine collection) ([2]; day 1, per animal): 14.3% and 20.9% and 36.3%; urine concentrations (in 0-8 h urine collection) ([2]; day 1, per animal): 173 µg/mL and 265 µg/mL and 114 µg/mL; urinary recoveries (0-8 h urine collection) ([2]; day 7, per animal): 40.5% and 41.9%; urine concentrations (in 0-8 h urine collection) ([2]; day 7, per animal): 17 µg/mL and 62 µg/mL and 149 µg/mL; concentration in the urine [2]: 175 µg/mL and 225 µg/mL and 260 µg/mL; 0-8 h recovery in urine [2]: up to 38 % of the dose and ≤ 55 % of the dose and ≤ 88 % of the dose

Source: patent publication EP3045469A1, “POLYMYXIN DERIVATIVE AND USES THEREOF” (priority 2015, dated 2016)
